The subject of the experiment is GATA2 binding. As to the kind of experiment: GATA2 ChIP-Seq in erythroid progenitors. The format is cell-based, human. Conditions: 1 μM. As to the method: Cells were fixed in 1% formaldehyde for 15 minutes at room temperature. Crosslinking reaction was extinguished by adding glycine to 125 mM. Cells were washed three times in PBS, 0.5% lgepal CA-630, 1 mM phenylmethanesulfonyl fluoride (PMSF). Cell pellets were snap frozen on dry ice and stored at -80°C.
ChIP-Seq was performed by Active Motif (Carlsbad, CA). Chromatin (30 μg) from vehicle (n = 1) or ACY-957 (n = 1) treated cells was immunoprecipitated (n = 1, each) with antibodies against GATA2 (20 μL, sc-9008, Santa Cruz Biotechnology), HDAC1 (20 μg, ab7028, Abcam), or HDAC2 (4 μg, ab12169, Abcam). ChIP DNA, as well as a control sample composed of equal amounts of input DNA from each treatment group, was processed into Illumina libraries using standard procedures, and libraries were sequenced on HiSeq 2000. The 50-nt sequence reads were mapped to the human genome, build Hg19, using the BWA algorithm with default settings. For the analysis, all data files were normalized to the same number of unique alignments without duplicate reads (24 million). Sequence tags were extended in silico (using Active Motif software) at their 3′-ends to a length of 150 bp. To identify the density of fragments (extended tags) along the genome, the genome was divided into 32-nt bins and the number of fragments in each bin was determined. The resulting histogram files (bigwig format) are presented in figures using the Santa Cruz Genome Browser. Visualizations were exported as an eps file and formatted using Adobe Illustrator. Regions of GATA2 enrichment (intervals) were determined using MACS peak calling software, which identifies enrichments in the ACY-957 or vehicle treated ChIP data file when compared to the input DNA data file (random background). To compare peak metrics between vehicle and ACY-957 treated samples, overlapping intervals are grouped into active regions, which are defined by the start coordinate of the most upstream interval and the end coordinate of the most downstream interval. In locations where only one sample has an interval, this interval defines the active region. […]

Turning to `Nc1ccc(-c2cccs2)cc1NC(=O)c1ccc2nc(N3CCNCC3)ccc2c1` [ACY-957], the “maximum increase in GATA2 binding peak height” value (-1.8 kb GATA2 regulatory region) worked out at 3 fold. In addition, for the setting “ChIP-Seq”, the “GATA2 binding at the other 5 regions of the β-like globin gene cluster” value is recorded as “not affected” and the “increase in GATA2 binding at the HBD promoter region” value came to 1.8 fold.
